Data published in US20100015220A1, “NIACIN AND NSAID COMBINATION THERAPY” (priority 2008, published 2010).
Like-named read-outs stand apart in the source and are kept apart here. Each block holds one compound with its values, some of them ahead of it.

Experiments:
[1] = ASA and salicylic acid plasma pharmacokinetic profiles; assay type: in vivo; conditions: for Cmax: plasma, oral; for aspirin plasma AUC / salicylic acid plasma AUC: in vivo
[2] = in vivo; cited from earlier work
[3] = Example 2 safety: monitoring of adverse events; assay type: in vivo, healthy volunteers
Procedure: Safety was assessed be assessing flushing episodes and by monitoring of other adverse events.
An adverse event (AE) is any unfavorable and unintended sign including an abnormal laboratory finding, symptom, or disease temporally associated with the use of a medical product, whether or not considered related to the study drug. The severity rating was scaled based on the following categories: • mild—awareness of a symptom, but easily tolerated; • moderate—discomfort enough to cause interference with usual activity; • severe—incapacitating with inability to work or perform usual activity.
A total of 54 subjects were enrolled in the study. Forty-six subjects completed all three dosing periods and have contributed data to the evaluation of flushing parameters. A total of 51 subjects were exposed to Treatment A (240 mg ASA), 50 to B (60 mg ASA), and 50 to C (Placebo); these subjects comprise the population for evaluation of safety parameters.

[4] = test system: flushing induced by nicotinic acid; conditions: guinea pigs; aspirin 50, 100 or 200 mg/kg; cited from earlier work
[5] = test system: flushing induced by nicotinic acid; conditions: humans; total 975 mg aspirin (650 mg at 1 hr and 325 mg at 0.5 hr prior to high dose nicotinic acid); cited from earlier work
[6] = test system: flushing following niacin dosing; assay: Example 1 clinical study: anti-flushing effect of aspirin regimen on immediate release niacin; assay type: in vivo, healthy volunteers; conditions: 243 mg aspirin per day for four days plus 20 mg/hr from 6 h before to 5 h after immediate release niacin; vs placebo
Excerpt: Provided is the clinical study to establish an anti-flushing effect of aspirin regimen on immediate release niacin. The primary endpoints for this study were treatment group comparisons of: • incidence, duration and severity of flushing following niacin dosing; • routine monitoring adverse events. Subjects have screening procedures performed up to 4 weeks prior to the first dosing visit. All qualified subjects received two single doses of niacin one week apart. Subjects were randomized to receive either an aspirin regimen or a placebo regimen prior to their niacin dose on day 1 and the opposite regimen prior to their niacin dose on day 8. At randomization, subjects received blinded study medication to be taken in the morning and evening of days −4, −3, −2 and −1. Subjects checked into the clinic on day −1 and remained housed for approximately 24 hours after niacin dosing on day 1. Prior to leaving the clinic, they received blinded study medication to be taken on the morning and evening of days 4, 5, 6, and 7. Subjects returned to the clinic on day 7 and remained housed for approximately 24 hours after niacin dosing on day 8. […] Episodes of flushing (including burning, itching, crawling sensation, pain and/or reddening of the skin, fever-like sensation) were recorded with start and end time and maximum severity captured. […]

[7] = test system: flushing associated with single-dose administration of extended-release niacin (Niaspan); assay: Example 2 three-way cross-over study: anti-flushing effects of two aspirin regimens versus placebo on extended release niacin; assay type: in vivo, healthy volunteers; conditions: for subjects who experienced a flushing response: 2 g extended-release niacin; for subjects who experienced a flushing response / total number of flushing episodes: 46 subjects; for maximum severity of flushing, mean / maximum severity of flushing, median: 100 mm VAS; for total cumulative duration of flushing, mean / total cumulative duration of flushing, median: start of first episode to end of last
Excerpt: To assess the ability of two aspirin regimens to decrease flushing associated with single-dose administration of extended-release niacin (Niaspan®). […] Study subjects remained housed overnight at the clinical research center following niacin dosing to carefully monitor for flushing reactions and other adverse events. Each subject received all three dosing regimens in a randomized, three-way cross-over fashion. Subjects have screening procedures performed up to 4 weeks prior to Period 1 Day (the first dosing visit), including assessment of flushing response to a 500 mg immediate release niacin (Niacor®) challenge. All qualified subjects received three single doses of extended-release niacin at least one week apart during three treatment periods. Subjects were randomized to receive one of the two aspirin regimens or placebo prior to their niacin dose on Day 1 of each treatment period. At randomization, subjects received blinded study medication to be taken in the evening of days -3 and -2. For each treatment period, subjects checked into the clinic on Day -1 and remained housed for at least 18 hours after niacin dosing on Day 1. Prior to leaving the clinic during treatment periods 1 and 2, subjects received blinded study medication to be taken in the morning and evening of Days -3 and -2 of the next treatment period. End of study procedures was performed on Day 2 of treatment period 3 240 mg […]. for three days prior to niacin dosing plus 30 mg ASA per hour for eight hours, starting 4 hours prior to niacin dosing. 10 mg ASA per hour for 6 hours prior to niacin dosing. This regimen tested whether a lower dose of aspirin without an aspirin lead-in, and given entirely prior to niacin dosing, was sufficient to diminish flushing. No aspirin. This regimen acted as the negative control. Niaspan®, as well as blinded aspirin or placebo, for oral administration during the inpatient portion of each treatment period (Day -1 and Day 1) were dispensed by study pharmacist and administered to the subject by study personnel. Aspirin or placebo were administered in the evening on Day -1 and hourly on Day 1 for 6 hours before, concurrently with, and hourly for 3 hours after the Niaspan® dose. Episodes of flushing (including burning, itching, crawling sensation, pain and/or reddening of the skin, fever-like sensation) were recorded with start and end time maximum severity, and individual symptoms captured. A 100 mm visual analog scale (0=no flushing symptoms; 100=intolerable symptoms) was used to capture severity as reported by the subject. For each subject during each treatment period, the number of episodes of flushing, maximum severity of all episodes of flushing, and total duration of flushing, from start of the first episode to the end of the last episode, was calculated and summarized by treatment regimen. […] A total of 54 subjects were enrolled in the study. Forty-six subjects completed all three dosing periods and have contributed data to the evaluation of flushing parameters. A total of 51 subjects were exposed to Treatment A (240 mg ASA), 50 to B (60 mg ASA), and 50 to C (Placebo); these subjects comprise the population for evaluation of safety parameters.

- Cmax ([1]; 160 mg, fast release rate): ~2600 ng/mL
- Cmax ([1]; 160 mg, intermediate release rate): ~1700 ng/mL
- Cmax ([1]; 160 mg, slow release rate): ~1200 ng/mL
- Cmax ([1]; 240 mg, fast release rate): ~3700 ng/mL
- Cmax ([1]; 240 mg, intermediate release rate): ~2600 ng/mL
- Cmax ([1]; 240 mg, slow release rate): ~1800 ng/mL
- Cmax ([1]; 324 mg, fast release rate): ~5000 ng/mL
- Cmax ([1]; 324 mg, intermediate release rate): ~3500 ng/mL
- Cmax ([1]; 324 mg, slow release rate): ~2400 ng/mL
SMILES: O=C(O)c1ccccc1O [salicylic acid]

SMILES: O=C(O)c1cccnc1 [Niacin, nicotinic acid]
- reduces Lp(a) levels [2]: about 40%

- aspirin plasma AUC ([1]; 160 mg): ~800 ngml^−1h
- salicylic acid plasma AUC ([1]; 160 mg): ~11000 ngml^−1h
- aspirin plasma AUC ([1]; 240 mg): ~1200 ngml^−1h
- salicylic acid plasma AUC ([1]; 240 mg): ~16300 ngml^−1h
- aspirin plasma AUC ([1]; 324 mg): ~1600 ngml^−1h
- salicylic acid plasma AUC ([1]; 324 mg): ~22000 ngml^−1h
SMILES: CC(=O)Oc1ccccc1C(=O)O [ASA, acetyl salicylic acid]
- adverse events involving gastrointestinal disorders ([3]; 60 mg ASA): 3 subjects
- headache ([3]; 60 mg ASA): 5 subjects
- Number of AEs ([3]; 60 mg ASA (n = 50)): 14
- Subjects with AEs Leading to Withdrawal ([3]; 60 mg ASA (n = 50)): 0 (0.0%) subjects (%)
- Subjects with Serious AEs ([3]; 60 mg ASA (n = 50)): 0 (0.0%) subjects (%)
- Subjects with Severe AEs ([3]; 60 mg ASA (n = 50)): 0 (0.0%) subjects (%)
- Subjects with any AE ([3]; 60 mg ASA (n = 50)): 10 (20.0%) subjects (%)
- Subjects with any CTM-related AE ([3]; 60 mg ASA (n = 50)): 7 (14.0%) subjects (%)
- adverse events involving gastrointestinal disorders ([3]; 240 mg ASA): 4 subjects
- headache ([3]; 240 mg ASA): 4 subjects
- Number of AEs ([3]; 240 mg ASA (n = 51)): 14
- Subjects with AEs Leading to Withdrawal ([3]; 240 mg ASA (n = 51)): 0 (0.0%) subjects (%)
- Subjects with Serious AEs ([3]; 240 mg ASA (n = 51)): 0 (0.0%) subjects (%)
- Subjects with Severe AEs ([3]; 240 mg ASA (n = 51)): 0 (0.0%) subjects (%)
- Subjects with any AE ([3]; 240 mg ASA (n = 51)): 12 (23.5%) subjects (%)
- Subjects with any CTM-related AE ([3]; 240 mg ASA (n = 51)): 7 (13.7%) subjects (%)
- flushing induced by nicotinic acid [4]: reduce the flushing induced by nicotinic acid
- flushing induced by nicotinic acid [5]: reduce the flushing induced by nicotinic acid
- reduction in mean flush intensity [6]: 53%
- reduction in median flush intensity [6]: 77%
- episodes of flushing per subject, mean ([7]; 60 mg ASA): 1.4
- subjects who experienced a flushing response ([7]; 60 mg ASA (Treatment B)): 87%
- incidence of itching, crawling, reddening and fever-like sensation of the skin ([7]; 60 mg ASA compared to placebo): occurred less frequently
- times more likely to have fewer episodes of flushing ([7]; 60 mg ASA compared to placebo (p>0.10)): 1.3 times
- total number of flushing episodes ([7]; 60 mg ASA): 64 episodes
- maximum severity of flushing, mean ([7]; 60 mg ASA): 36.1 mm
- maximum severity of flushing, median ([7]; 60 mg ASA): 35.0 mm
- total cumulative duration of flushing, mean ([7]; 60 mg ASA): 101.8 min
- total cumulative duration of flushing, median ([7]; 60 mg ASA): 84.0 min
- episodes of flushing per subject, mean ([7]; 240 mg ASA): 1.1
- subjects who experienced a flushing response ([7]; 240 mg ASA (Treatment A)): 74%
- incidence of individual flushing symptoms ([7]; 240 mg ASA compared to 60 mg ASA or placebo): lower incidence of each flushing symptom
- times more likely to have fewer episodes of flushing ([7]; 240 mg ASA compared to 60 mg ASA, multinomial logistic regression (p=0.05)): 1.7 times
- times more likely to have fewer episodes of flushing ([7]; 240 mg ASA compared to placebo, multinomial logistic regression (p=0.01)): 2.1 times
- total number of flushing episodes ([7]; 240 mg ASA): 52 episodes
- maximum severity of flushing, mean ([7]; 240 mg ASA): 25.8 mm
- maximum severity of flushing, median ([7]; 240 mg ASA): 20.0 mm
- total cumulative duration of flushing, mean ([7]; 240 mg ASA): 67.1 min
- total cumulative duration of flushing, median ([7]; 240 mg ASA): 44.5 min
